From patent US20250352534A1 (Tesaro, Inc., priority 2022, published 2025)
In brackets after ≈: the same amount, converted by molar mass. Read-outs that look alike come from different tables or passages of the source. Blank lines part the entries; values can stand above or below the compound they belong to.

Key:
[1] = Phase 0 Arm A tumor pharmacokinetics (LC-MS/MS) in newly-diagnosed GBM patients
Description: (§2) The final presurgical dose will be administered 3-5 hours or 8-10 hours before tumor resection. Assignment to time-cohorts will be random. […] In each of the two time-cohorts, tumor PK and PD analyses will be performed at the Ivy Brain Tumor Center.
(§3) For PK analysis, blood, CSF, and brain tumor tissue samples (gadolinium enhancing and non-enhancing) will be collected intraoperatively. Additional blood samples will be obtained on Day 1 pre-dose and on Day 4 (the day of the surgery) at pre-dosing (trough level), 0.5, 1, 2, 4, 6, 9-, 12-, 24-, and 48-hours post-dose.
(§4) Tumor-to-plasma ratios will be calculated. All assays and analyses will be developed, validated, and performed at Ivy Brain Tumor Center.
(§5) Tumor tissue (enhancing and nonenhancing regions), cerebrospinal fluid (CSF), and plasma were collected. […] Evidence of PARP inhibition was assessed by 10 Gy ex vivo irradiation of surgical tissue and quantification of PARylation compared to non-irradiated control tissue.
(§6) Tumor tissue (enhancing and non-enhancing regions), cerebrospinal fluid (CSF), and plasma were collected. […] PARP inhibition was assessed by quantification of PAR induction after 10 Gy ex vivo irradiation in surgical tissue compared to non-irradiated control tissue. A PK ‘trigger’ determined eligibility for the therapeutic phase 2 expansion portion of the study.

clinical = details: human, oral
Description: as §2, §3, §4, §5, §6

in vitro = details: rat, brain homogenate
Description: (§1) At least three days prior to the start of the study, six male rats per group (total 24 rats) received surgically implanted femoral vein and carotid artery catheters for infusion of the test molecule and blood sampling, respectively. Doses were filtered prior to administration and the actual dose administered to the animals was quantified. All PK parameters were calculated based on the actual dose administered to each animal. Animals received an intravenous bolus loading dose followed by a constant intravenous infusion to maintain steady state of drug level. At the end of the infusion, animals were euthanized and brain tissues were collected. Tissue homogenates were prepared in PBS (1:4 w/v). LC-MS/MS method was used to quantitate drug concentrations. Tissue homogenate concentrations were corrected for test compound contained in residual plasma in the tissue. The tissue-to-plasma ratio was calculated by dividing corrected tissue concentration by steady-state plasma concentration. […] Data are reported as fraction unbound (Fu).

PAR (PARP inhibition) = details: 17/22 patients
Description: For PD analysis, intraoperatively-collected gadolinium-enhancing tumor tissue will be sectioned into 4 similarly-sized tissue portions. Two tissue specimens will be exposed to 10 Gy of IR using a RAD2000 device and two specimens will be sham irradiated (non-irradiated). One pair of sham control and 10 Gy radiated tissue will be fixed in formalin solution for FFPE slides. The other pair will be snap-frozen for PAR ELISA assay.
A ‘functional’ PD assay examining PAR activity in the setting of ex vivo irradiation will serve as a secondary endpoint in this protocol. In the Ivy Center's CLIA-certified PD Core, FFPE embedded tumor tissue from both ex vivo irradiated and non-irradiated to assess changes in PAR, cleaved caspase 3, γH2AX and Ki67 using immunohistochemistry (IHC) assays. Alternatively, ELISA assays to quantify PAR levels will be performed using frozen lysates from the second pair of control and irradiated samples.
Evidence of PARP inhibition was assessed by 10 Gy ex vivo irradiation of surgical tissue and quantification of PARylation compared to non-irradiated control tissue.
PARP inhibition was assessed by quantification of PAR induction after 10 Gy ex vivo irradiation in surgical tissue compared to non-irradiated control tissue.

[2] = brain penetration in mouse brain metastatic tumor model (LC-MS, MALDI IMS); format: in vivo, mice; details: for MALDI IMS Brain Section Median, adjusted free concentration / MALDI IMS Brain Section Median, total concentration / Bulk Brain Homogenate Avg, adjusted free concentration / Bulk Brain Homogenate Avg, total concentration / concentration at 2 h: 2 hr post final dose; for Bulk Brain Homogenate Avg, adjusted free concentration / Bulk Brain Homogenate Avg, total concentration: LC-MS; for concentration at 2 h: plasma, po QD 5 days, niraparib 35 mg/kg, olaparib 50 mg/kg, read-out: Terminal Plasma Avg, total concentration
Text: Female mice (CrTac:NCr-Foxnlnu; 6 w/o) received 2.5E5 luciferase transfected human breast cancer line (MDA 231-BRM2-831) via intracardiac injection. Mice were imaged twice/week using bioluminescence imaging (BLI) to monitor tumor growth. […] Tissue collected between each imaging plane was homogenized for LC-MS bioanalysis.

physchem = details: aqueous buffer
[3] = test system: MGMT-unmethylated newly-diagnosed glioblastoma
Text: Participants will continue receiving maintenance treatment until progression of disease, unacceptable toxicity or death, withdrawal of consent, loss to follow-up, or study termination by sponsor.
• 1. […] Expansion: Examine progression-free survival rate measured from time of surgery to date of recurrence.

[4] = test system: cancer cells with mutant BRCA-1 and BRCA-2; details: read-out: inhibition of proliferation CC50; cited from earlier work
[5] = clinical safety, Phase 0 and expansion phase Arm A; details: for tolerability: glioblastoma patients
Description: as §6

PARP activity = details: read-out: inhibition of PARP activity EC50; whole cell assay; cited from earlier work
[6] = brain penetration in healthy Rhesus macaque monkeys (LC-MS, MALDI IMS); format: in vivo; details: for Bulk Brain Homogenate, adjusted free concentration / Bulk Brain Homogenate, total concentration: LC-MS; for Terminal CSF / Terminal Plasma, adjusted free concentration: at necropsy; for Kp uu: male, rhesus monkey, brain homogenate / plasma, oral
Description: Pre-dose blood was collected daily and terminal blood, cerebrospinal fluid (CSF), and brain tissue was collected at necropsy. […] Blood, CSF, and bulk homogenates of brain tissue were analyzed by LC-MS bioanalysis.

P-gp (Mdr1-a) = assay: in vivo; details: male, rat, brain / plasma, intravenous, P-gp knock-out rat
Description: as §1

[7] = test system: P-gp (Mdr1-a) and BCRP (ABCG2); assay: in vivo; details: male, rat, brain / plasma, intravenous; for Kp: Brain:plasma (Kp) ratio; for Kp uu: Unbound brain:plasma ratio (Kp, uu)
Description: as §1

BCRP (ABCG2) = assay: in vivo; details: male, rat, brain / plasma, intravenous, BCRP knock-out rat
Description: as §1

[8] = test system: P-gp (P-glycoprotein/Mdr1-a) and BCRP (ABCG2); assay: in vivo
Description: as §1

[9] = enhancing tumor tissue / plasma
[10] = non-enhancing tumor tissue / plasma
[11] = female, CrTac:NCr-Foxnlnu, mouse, oral, BM mice, from bulk brain homogenate and terminal plasma free concentrations
[12] = female, CrTac:NCr-Foxnlnu, mouse, oral, BM (brain metastases) mice
[13] = female, CrTac:NCr-Foxnlnu, mouse, oral, Control mice
[14] = Monkey 1, Day 1, po daily 5 days, niraparib 6 mg/kg, olaparib 10 mg/kg
[15] = Monkey 2, Day 1, po daily 5 days, niraparib 6 mg/kg, olaparib 10 mg/kg
[16] = healthy Rhesus macaque monkeys, five days oral administration
[17] = Unbound brain:plasma ratio (Kp, uu)

Structure (SMILES): NC(=O)c1cccc2cn(-c3ccc([C@@H]4CCCNC4)cc3)nc12 [niraparib, (3S)-3-[4-{7-(aminocarbonyl)-2H-indazol-2-yl}phenyl]piperidine]
mean unbound concentration in Gd-nonenhancing tumor region ([1]; 200 mg, 3-5 hr cohort 1 (n=6)): 250.8 nM
mean unbound concentration in Gd-nonenhancing tumor region ([1]; 300 mg QD 4 days, 3-5 hr cohort (n=8), interim results): 340.9 nM
mean unbound concentration in Gd-nonenhancing tumor region ([1]; 300 mg QD 4 days, 8-12 hr cohort (n=3)): 331.9 nM
mean unbound concentration in Gd-nonenhancing tumor region ([1]; 300 mg, 3-5 hr cohort 1 (n=20)): 366.2 nM
mean unbound concentration in non-enhancing regions ([1]; 300 or 200 mg QD 4 days, 29 patients, further interim results): 258.2 nM
Kp (clinical; [9]): 7.89
Kp uu (clinical; [9]): 1.8
Kp (clinical; [10]): 4.27
Kp uu (clinical; [10]): 0.8
fraction unbound (in vitro): 0.04
patients with suppression of PAR levels after ex vivo radiation (PAR (PARP inhibition)): 79%
estimated mean Kp,uu,brain, times higher for niraparib compared to olaparib ([2]; BM mice): 5.6 ×
MALDI IMS Brain Section Median, adjusted free concentration ([2]; BM mice): 80
MALDI IMS Brain Section Median, total concentration ([2]; BM mice): 473
Bulk Brain Homogenate Avg, adjusted free concentration ([2]; BM mice): 91 ng/g
Bulk Brain Homogenate Avg, total concentration ([2]; BM mice): 543 ng/g
MALDI IMS Brain Section Median, adjusted free concentration ([2]; Control mice): 89
MALDI IMS Brain Section Median, total concentration ([2]; Control mice): 532
Bulk Brain Homogenate Avg, adjusted free concentration ([2]; Control mice): 111 ng/g
Bulk Brain Homogenate Avg, total concentration ([2]; Control mice): 658 ng/g
estimated mean Kp,uu,brain, times higher for niraparib compared to olaparib ([2]; control mice): 3.0 ×
Kp uu at 2 h post final dose [2, 11]: 0.18
Kp uu at 2 h ([2]; female, CrTac:NCr-Foxnlnu, mouse, oral, Control mice, from bulk brain homogenate and terminal plasma free concentrations): 0.18
concentration at 2 h [2, 12]: 2540 ng/mL
concentration at 2 h [2, 13]: 3100 ng/mL
distribution in coronal brain sections by MALDI IMS ([2]; mice administered niraparib): consistent concentrations distributed throughout the brain parenchyma with locally higher concentrations detected from tumor regions
solubility (physchem): 700 to 1100 µg/mL (≈ 2180 to 3430 µM)
outcome of the 6 patients with ≥6 months follow-up ([3]; MGMT-unmethylated PK-responders, niraparib in addition to radiotherapy): four are in remission and two had a recurrence of tumor
PFS6 ([3]; niraparib with concurrent RT then maintenance, 11 patients, median follow-up 8.1 months): 64%
CC50 [4]: 10 to 100 nM
patients with thrombocytopenia related to niraparib ([5]; 6 initial patients enrolled in phase 2, niraparib with concurrent RT): Five of the 6
patients with Grade 3 treatment-related adverse event (ALT and AST elevation) ([5]; Phase 0, twelve patients, 300 mg QD 4 days): one patient
serious AEs after starting dose lowered to 200 mg ([5]; both phases): no serious AEs were observed thereafter
patients with treatment-related thrombocytopenia ([5]; expansion phase, two patients enrolled): two patients
tolerability [5]: well-tolerated, with low rates of grade 3+ toxicity
tolerability ([5]; listed as Niraparib): generally well-tolerated
thrombocytopenia cases deemed serious and life-threatening ([5]; of the 5 thrombocytopenia cases in phase 2): 3/5
EC50 (PARP activity): 4 nM
MALDI IMS Brain Section Average, adjusted free concentration ([6]; Monkey 1): (10) ng/g
Pre-Dose Plasma, total concentration [6, 14]: BQL
Pre-Dose Plasma, adjusted free concentration ([6]; Monkey 1, Day 2): 10 ng/mL
Pre-Dose Plasma, total concentration ([6]; Monkey 1, Day 2): 28 ng/mL
Pre-Dose Plasma, adjusted free concentration ([6]; Monkey 1, Day 3): 18 ng/mL
Pre-Dose Plasma, total concentration ([6]; Monkey 1, Day 3): 49 ng/mL
Pre-Dose Plasma, adjusted free concentration ([6]; Monkey 1, Day 4): 22 ng/mL
Pre-Dose Plasma, total concentration ([6]; Monkey 1, Day 4): 59 ng/mL
Pre-Dose Plasma, adjusted free concentration ([6]; Monkey 1, Day 5): (26) ng/mL
Pre-Dose Plasma, total concentration ([6]; Monkey 1, Day 5): 72 ng/mL
Bulk Brain Homogenate, adjusted free concentration ([6]; Monkey 1): (14) ng/g
Terminal CSF ([6]; Monkey 1): 9 ng/mL
Terminal Plasma, adjusted free concentration ([6]; Monkey 1): (31) ng/mL
Terminal Plasma, total concentration ([6]; Monkey 1, at necropsy after 5 daily oral doses): 84 ng/mL
MALDI IMS Brain Section Average, adjusted free concentration ([6]; Monkey 2): (25) ng/g
Pre-Dose Plasma, total concentration [6, 15]: BQL
Pre-Dose Plasma, adjusted free concentration ([6]; Monkey 2, Day 2): 21 ng/mL
Pre-Dose Plasma, total concentration ([6]; Monkey 2, Day 2): 58 ng/mL
Pre-Dose Plasma, adjusted free concentration ([6]; Monkey 2, Day 3): 32 ng/mL
Pre-Dose Plasma, total concentration ([6]; Monkey 2, Day 3): 87 ng/mL
Pre-Dose Plasma, adjusted free concentration ([6]; Monkey 2, Day 4): 27 ng/mL
Pre-Dose Plasma, total concentration ([6]; Monkey 2, Day 4): 74 ng/mL
Pre-Dose Plasma, adjusted free concentration ([6]; Monkey 2, Day 5): (24) ng/mL
Pre-Dose Plasma, total concentration ([6]; Monkey 2, Day 5): 66 ng/mL
Bulk Brain Homogenate, adjusted free concentration ([6]; Monkey 2): (29) ng/g
Terminal CSF ([6]; Monkey 2): 25 ng/mL
Terminal Plasma, adjusted free concentration ([6]; Monkey 2): (160) ng/mL
Kp,uu,brain, times higher for niraparib compared to olaparib [6, 16]: 15 ×
detection and distribution in coronal brain sections by MALDI IMS [6, 16]: consistent concentrations distributed throughout the brain parenchyma
Kp uu ([6]; Monkey 2, from bulk brain homogenate and terminal plasma free concentrations, read-out: Kp, uu Brain/Plasma): 0.16
Kp uu ([6]; mean of Monkey 1 and 2, read-out: Mean Kp, uu Brain/Plasma): 0.3
Kp (P-gp (Mdr1-a); Brain:plasma (Kp) ratio): 3.7
Kp uu (P-gp (Mdr1-a); [17]): 0.87
Kp ([7]; P-gp/BCRP double knock-out rat): 6.3
Kp ([7]; control rat): 0.47
Kp uu ([7]; P-gp/BCRP double knock-out rat): 1.5
Kp uu ([7]; control rat): 0.1
Kp (BCRP (ABCG2); Brain:plasma (Kp) ratio): 0.64
Kp uu (BCRP (ABCG2); [17]): 0.15
increase of brain tissue concentrations ([8]; BCRP knockout rats vs control): < 2 fold
increase of brain tissue concentrations ([8]; Mdr1-a (P-gp) knockout rats vs control, iv bolus plus infusion, steady state): 9 fold
increase of brain tissue concentrations ([8]; Pgp/BCRP double knockout rats vs control): 14 fold

Bulk Brain Homogenate Avg, adjusted free concentration ([2]; BM mice): 2 ng/g
Bulk Brain Homogenate Avg, total concentration ([2]; BM mice): 11 ng/g
Bulk Brain Homogenate Avg, adjusted free concentration ([2]; Control mice): 2 ng/g
Bulk Brain Homogenate Avg, total concentration ([2]; Control mice): 12 ng/g
Kp, uu Brain ([2]; Control mice, from bulk brain homogenate and terminal plasma free concentrations): 0.02
Kp uu at 2 h post final dose [2, 11]: 0.03
concentration at 2 h [2, 12]: 254 ng/mL
concentration at 2 h [2, 13]: 322 ng/mL
MALDI IMS Brain Section Average, total concentration ([6]; Monkey 1): BLQ
Pre-Dose Plasma, total concentration [6, 14]: BQL
Pre-Dose Plasma, adjusted free concentration ([6]; Monkey 1, Day 2): 8 ng/mL
Pre-Dose Plasma, total concentration ([6]; Monkey 1, Day 2): 27 ng/mL
Pre-Dose Plasma, adjusted free concentration ([6]; Monkey 1, Day 3): 8 ng/mL
Pre-Dose Plasma, total concentration ([6]; Monkey 1, Day 3): 26 ng/mL
Pre-Dose Plasma, adjusted free concentration ([6]; Monkey 1, Day 4): 10 ng/mL
Pre-Dose Plasma, total concentration ([6]; Monkey 1, Day 4): 33 ng/mL
Pre-Dose Plasma, adjusted free concentration ([6]; Monkey 1, Day 5): (10) ng/mL
Pre-Dose Plasma, total concentration ([6]; Monkey 1, Day 5): 33 ng/mL
Bulk Brain Homogenate, adjusted free concentration ([6]; Monkey 1): (2) ng/g
Bulk Brain Homogenate, total concentration ([6]; Monkey 1): 12 ng/g
Kp, uu Brain/Plasma ([6]; Monkey 1, from bulk brain homogenate and terminal plasma free concentrations): 0.02
MALDI IMS Brain Section Average, total concentration ([6]; Monkey 2): BLQ
Pre-Dose Plasma, total concentration [6, 15]: BQL
Pre-Dose Plasma, adjusted free concentration ([6]; Monkey 2, Day 2): 16 ng/mL
Pre-Dose Plasma, total concentration ([6]; Monkey 2, Day 2): 51 ng/mL
Pre-Dose Plasma, adjusted free concentration ([6]; Monkey 2, Day 3): 5 ng/mL
Pre-Dose Plasma, total concentration ([6]; Monkey 2, Day 3): 17 ng/mL
Pre-Dose Plasma, adjusted free concentration ([6]; Monkey 2, Day 4): 16 ng/mL
Pre-Dose Plasma, total concentration ([6]; Monkey 2, Day 4): 53 ng/mL
Pre-Dose Plasma, adjusted free concentration ([6]; Monkey 2, Day 5): (14) ng/mL
Pre-Dose Plasma, total concentration ([6]; Monkey 2, Day 5): 45 ng/mL
Bulk Brain Homogenate, adjusted free concentration ([6]; Monkey 2): (2) ng/g
Bulk Brain Homogenate, total concentration ([6]; Monkey 2): 11 ng/g
Kp, uu Brain/Plasma ([6]; Monkey 2, from bulk brain homogenate and terminal plasma free concentrations): 0.03
detection and distribution in coronal brain sections by MALDI IMS [6, 16]: not detected
Mean Kp, uu Brain/Plasma ([6]; mean of Monkey 1 and 2): 0.02
Structure (SMILES): O=C(c1cc(Cc2n[nH]c(=O)c3ccccc23)ccc1F)N1CCN(C(=O)C2CC2)CC1 [olaparib]
Terminal CSF ([6]; Monkey 1): 13 ng/mL
Terminal Plasma, adjusted free concentration ([6]; Monkey 1): (99) ng/mL
Terminal CSF ([6]; Monkey 2): 6 ng/mL
Terminal Plasma, adjusted free concentration ([6]; Monkey 2): (78) ng/mL
